# Values of other authors in patent US8367683B2, “Composition and method for treatment of warts” (Medcara, L.L.C., priority 2005, dated 2013).
# Test system: warts
# Settings: even with patient compliance; applied several times a day over weeks to months
smiles,measurement,value
O=C(O)c1ccccc1O [salicylic acid],share of users who experience success,less than half
